Data as given in publication PMC4956396 (Molecular Pain, 2016).

Columns and labels:
[1] = biological target: Cav3.1 (Homo sapiens, UniProt O43497); experiment: whole-cell patch clamp, transiently transfected tsA-201 cells, % inhibition at […]; format: cell-based; settings: tsA201, read-out: % inhibition at 10 μM
[2] = biological target: Cav3.3 (Homo sapiens, UniProt Q9P0X4); experiment: as above; format: cell-based; settings: tsA201, read-out: % inhibition at 10 μM
Cav3.3, sequence (Q9P0X4 whole entry): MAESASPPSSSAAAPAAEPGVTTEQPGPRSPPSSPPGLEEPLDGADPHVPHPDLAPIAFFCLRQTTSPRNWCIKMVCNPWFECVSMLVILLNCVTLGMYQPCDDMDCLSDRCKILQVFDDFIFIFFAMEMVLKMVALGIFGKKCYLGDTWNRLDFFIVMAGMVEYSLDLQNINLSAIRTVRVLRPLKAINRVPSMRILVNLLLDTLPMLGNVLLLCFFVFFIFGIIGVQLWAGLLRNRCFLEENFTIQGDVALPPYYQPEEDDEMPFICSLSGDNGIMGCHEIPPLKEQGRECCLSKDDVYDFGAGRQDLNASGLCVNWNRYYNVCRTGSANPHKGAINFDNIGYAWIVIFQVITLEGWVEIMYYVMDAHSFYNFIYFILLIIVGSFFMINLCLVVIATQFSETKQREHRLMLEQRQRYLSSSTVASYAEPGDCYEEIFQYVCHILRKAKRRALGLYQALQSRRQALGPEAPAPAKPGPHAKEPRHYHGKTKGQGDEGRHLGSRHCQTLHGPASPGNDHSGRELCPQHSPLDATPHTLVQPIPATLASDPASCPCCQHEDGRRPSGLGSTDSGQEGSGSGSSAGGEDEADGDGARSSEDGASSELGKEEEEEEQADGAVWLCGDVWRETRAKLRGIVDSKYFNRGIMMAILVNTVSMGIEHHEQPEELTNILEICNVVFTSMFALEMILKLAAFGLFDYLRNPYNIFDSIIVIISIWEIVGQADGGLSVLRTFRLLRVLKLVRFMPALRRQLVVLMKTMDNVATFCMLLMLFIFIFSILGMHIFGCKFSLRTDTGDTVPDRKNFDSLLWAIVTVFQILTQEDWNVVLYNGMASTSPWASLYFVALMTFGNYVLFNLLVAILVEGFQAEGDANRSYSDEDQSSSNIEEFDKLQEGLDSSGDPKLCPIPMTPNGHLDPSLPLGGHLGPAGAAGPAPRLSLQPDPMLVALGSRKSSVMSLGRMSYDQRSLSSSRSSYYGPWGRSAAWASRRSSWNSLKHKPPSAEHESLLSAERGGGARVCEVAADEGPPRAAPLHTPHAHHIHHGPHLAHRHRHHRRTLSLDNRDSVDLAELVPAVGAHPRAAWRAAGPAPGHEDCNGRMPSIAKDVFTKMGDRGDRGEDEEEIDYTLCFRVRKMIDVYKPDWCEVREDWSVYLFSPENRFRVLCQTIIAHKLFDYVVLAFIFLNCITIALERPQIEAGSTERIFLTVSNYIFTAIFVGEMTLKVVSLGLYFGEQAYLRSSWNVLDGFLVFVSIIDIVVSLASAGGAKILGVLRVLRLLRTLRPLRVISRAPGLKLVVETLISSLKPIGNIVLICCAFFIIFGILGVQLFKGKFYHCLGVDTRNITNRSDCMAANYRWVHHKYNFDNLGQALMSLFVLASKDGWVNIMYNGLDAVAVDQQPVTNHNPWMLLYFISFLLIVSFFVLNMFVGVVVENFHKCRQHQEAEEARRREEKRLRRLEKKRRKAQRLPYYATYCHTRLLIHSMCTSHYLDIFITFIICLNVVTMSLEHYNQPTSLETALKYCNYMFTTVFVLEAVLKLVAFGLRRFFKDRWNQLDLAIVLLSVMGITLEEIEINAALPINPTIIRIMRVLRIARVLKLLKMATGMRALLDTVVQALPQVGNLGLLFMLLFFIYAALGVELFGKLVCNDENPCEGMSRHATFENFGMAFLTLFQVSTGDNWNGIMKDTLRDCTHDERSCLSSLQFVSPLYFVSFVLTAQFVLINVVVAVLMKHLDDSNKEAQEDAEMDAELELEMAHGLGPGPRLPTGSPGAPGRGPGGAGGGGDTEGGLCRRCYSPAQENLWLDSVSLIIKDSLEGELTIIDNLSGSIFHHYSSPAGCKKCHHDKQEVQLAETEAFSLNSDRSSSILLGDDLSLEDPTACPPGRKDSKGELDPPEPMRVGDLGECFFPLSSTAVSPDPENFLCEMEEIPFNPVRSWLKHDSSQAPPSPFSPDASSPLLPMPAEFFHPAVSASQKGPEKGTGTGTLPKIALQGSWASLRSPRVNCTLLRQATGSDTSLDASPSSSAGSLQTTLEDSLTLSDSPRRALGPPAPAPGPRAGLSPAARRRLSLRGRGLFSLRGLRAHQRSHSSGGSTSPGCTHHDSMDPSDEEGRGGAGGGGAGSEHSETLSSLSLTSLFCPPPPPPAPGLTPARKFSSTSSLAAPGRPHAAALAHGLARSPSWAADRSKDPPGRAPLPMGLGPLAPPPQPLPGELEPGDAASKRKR

Cav3.1, sequence (O43497 whole entry): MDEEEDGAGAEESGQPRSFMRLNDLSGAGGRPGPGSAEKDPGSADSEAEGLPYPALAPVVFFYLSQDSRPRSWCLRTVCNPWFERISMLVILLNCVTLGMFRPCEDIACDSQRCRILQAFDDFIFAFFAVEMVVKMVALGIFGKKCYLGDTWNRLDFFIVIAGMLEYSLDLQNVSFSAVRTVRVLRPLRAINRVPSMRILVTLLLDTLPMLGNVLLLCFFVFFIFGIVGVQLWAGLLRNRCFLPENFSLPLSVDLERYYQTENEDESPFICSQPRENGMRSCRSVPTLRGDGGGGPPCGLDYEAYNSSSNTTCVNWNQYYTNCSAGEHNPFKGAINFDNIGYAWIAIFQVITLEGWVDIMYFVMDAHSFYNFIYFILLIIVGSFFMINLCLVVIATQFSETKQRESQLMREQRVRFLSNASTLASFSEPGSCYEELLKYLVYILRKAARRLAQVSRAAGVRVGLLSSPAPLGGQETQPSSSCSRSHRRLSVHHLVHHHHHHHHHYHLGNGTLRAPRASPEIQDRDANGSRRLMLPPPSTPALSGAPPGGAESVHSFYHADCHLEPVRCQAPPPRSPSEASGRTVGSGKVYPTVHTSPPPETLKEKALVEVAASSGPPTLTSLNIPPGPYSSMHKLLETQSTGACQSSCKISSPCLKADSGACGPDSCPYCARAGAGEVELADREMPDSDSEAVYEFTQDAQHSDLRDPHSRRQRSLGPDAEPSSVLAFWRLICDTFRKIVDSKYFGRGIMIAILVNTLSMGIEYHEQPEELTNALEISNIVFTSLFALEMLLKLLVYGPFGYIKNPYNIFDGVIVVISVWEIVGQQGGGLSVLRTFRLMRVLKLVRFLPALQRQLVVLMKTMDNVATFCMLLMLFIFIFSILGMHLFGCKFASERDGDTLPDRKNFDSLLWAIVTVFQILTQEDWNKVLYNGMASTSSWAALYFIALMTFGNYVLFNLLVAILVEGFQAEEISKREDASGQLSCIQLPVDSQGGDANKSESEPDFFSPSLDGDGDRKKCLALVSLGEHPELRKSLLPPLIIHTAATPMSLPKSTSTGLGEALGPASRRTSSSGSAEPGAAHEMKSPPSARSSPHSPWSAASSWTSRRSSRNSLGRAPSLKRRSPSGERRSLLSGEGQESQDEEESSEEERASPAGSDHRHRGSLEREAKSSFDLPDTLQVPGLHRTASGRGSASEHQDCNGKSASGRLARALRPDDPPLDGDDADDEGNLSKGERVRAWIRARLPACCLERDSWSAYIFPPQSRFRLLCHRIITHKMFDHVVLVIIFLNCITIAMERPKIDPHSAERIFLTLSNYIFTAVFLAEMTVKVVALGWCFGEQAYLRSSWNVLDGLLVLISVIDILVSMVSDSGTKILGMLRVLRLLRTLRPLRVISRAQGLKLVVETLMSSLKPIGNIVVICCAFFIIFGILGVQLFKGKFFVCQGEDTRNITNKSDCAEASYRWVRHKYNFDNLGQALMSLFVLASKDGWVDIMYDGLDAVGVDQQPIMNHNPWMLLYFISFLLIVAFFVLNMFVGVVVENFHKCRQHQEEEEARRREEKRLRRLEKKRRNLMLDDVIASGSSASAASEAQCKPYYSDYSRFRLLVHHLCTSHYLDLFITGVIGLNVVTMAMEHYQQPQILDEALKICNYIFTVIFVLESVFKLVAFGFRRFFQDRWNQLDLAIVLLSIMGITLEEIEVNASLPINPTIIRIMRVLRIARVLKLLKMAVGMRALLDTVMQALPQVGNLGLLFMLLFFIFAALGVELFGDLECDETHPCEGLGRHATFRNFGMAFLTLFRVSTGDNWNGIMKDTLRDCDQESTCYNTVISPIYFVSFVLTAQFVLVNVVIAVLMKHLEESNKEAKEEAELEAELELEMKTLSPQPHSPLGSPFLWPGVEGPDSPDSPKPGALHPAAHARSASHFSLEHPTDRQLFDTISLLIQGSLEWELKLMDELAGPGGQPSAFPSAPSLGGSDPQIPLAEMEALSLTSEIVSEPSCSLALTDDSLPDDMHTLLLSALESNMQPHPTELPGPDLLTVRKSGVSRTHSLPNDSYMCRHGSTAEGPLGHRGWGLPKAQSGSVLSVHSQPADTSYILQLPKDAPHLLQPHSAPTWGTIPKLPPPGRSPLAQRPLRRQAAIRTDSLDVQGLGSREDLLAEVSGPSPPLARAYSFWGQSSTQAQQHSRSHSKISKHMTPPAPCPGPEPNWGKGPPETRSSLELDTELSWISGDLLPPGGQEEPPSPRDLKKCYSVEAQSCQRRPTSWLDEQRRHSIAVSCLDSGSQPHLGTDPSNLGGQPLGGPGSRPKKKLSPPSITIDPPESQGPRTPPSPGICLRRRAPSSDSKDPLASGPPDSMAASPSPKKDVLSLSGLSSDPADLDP

## COc1ccccc1-c1no[n+]([O-])c1CN1CCN(C(c2ccc(F)cc2)c2ccc(F)cc2)CC1 [10e, 3-((4-(bis(4-fluorophenyl)methyl)piperazin-1-yl)methyl)-4-(2-methoxyphenyl)-1,2,5-oxadiazole 2-oxide]
[1]
  inhibition at 10 µM: 93.3 ± 2.78%
[2]
  inhibition at 10 µM: 88.4 ± 4.08%
